Consider 23 compounds from patent US12312579B2, “Method for culturing H. pylori for future testing” (BioSherpa, LLC, priority 2019, dated 2025).

Experiment [1] has as its system Klebsiella oxytoca. The experiment can be described thus: Antibiotic sensitivity (MIC) of Klebsiella oxytoca isolated from sputum, Example 2. Format: cell-based. Particulars: for Interps / MIC: Klebsiella oxytoca isolate from experimental sputum sample.
The subject of experiment [2] is S. Pneumoniae. The experiment can be described thus: Antibiotic sensitivity pattern (MIC) of S. pneumoniae isolated from sputum, Example 1. Format: cell-based, Streptococcus pneumoniae. The settings on record: for Interpretation / MIC: S. pneumoniae isolate from experimental sputum sample; for MIC: unit assumed. An excerpt:
FIG. 5E illustrates the mucoid alpha Streptococcus only on the experimental sample is Streptococcus pneumonia. Streptococcus pneumoniae not isolated using standard methods.
The patient had invasive pneumococcal disease as noted by a positive Streptococcus pneumoniae urine antigen result. This sample is most impressive in that the systems and methods described herein allowed isolation of Streptococcus pneumoniae despite the patient being on ceftriaxone for two days at the time of collection. The isolate is sensitive to ceftriaxone according to the sensitivity pattern. S in the Interpretation column of the tables below indicates sensitivity, and R indicates resistance.

The subject of experiment [3] is S. aureus. The experiment can be described thus: Antibiotic sensitivity (MIC) of 5/14 sputum culture isolate, Example 4. Particulars: 5/14 Sputum cx. The experiment is classed as cell-based, Staphylococcus aureus. From the text:
(§1) The original culture taken on 5/5 (finalized on 5/7) was identical to a subsequent culture taken on 5/14 that only grew MRSA.

Experiment [4] concerns MRSA. The experiment can be described thus: Clinical course of intubated patient with MRSA in sputum, Example 4. Format: in vivo, human. The settings on record: one patient, MRSA pneumonia, on ventilator. An excerpt: (§2) FIG. 5M illustrates the use of systems and methods to isolate MRSA in sputum allowing for faster initiation of anti-MRSA therapy and clinical cure. This patient was intubated for hypoxemia and pneumonia. The patient placed on ceftriaxone and azithromycin. The systems and methods allowed identification of MRSA in the patient's sputum.
FIG. 5N illustrates the yellow colony in the experimental site is obvious. The patient decompensated clinically to the point of near death until proper MRSA antibiotic therapy was initiated. Hypoxemia worsened and oxygen requirements increased prior to MRSA therapy.

In experiment [5] the test system is MRSA. The experiment can be described thus: Antibiotic sensitivity (MIC) of 5/5 sputum culture isolate, Example 4. Format: cell-based, Staphylococcus aureus. Particulars: 5/5 Sputum cx, Positive for MRSA.
From the text: as §2, §1

Experiment [6] has as its system Staphylococcus aureus. The experiment can be described thus: Antibiotic sensitivity (MIC) of original blood culture isolate, Example 3. Format: cell-based. The settings on record: Rare Colonies Staphylococcus aureus. As for the experimental part: While not being bound to a specific theory, the native bone may sequester sessile infection in biofilms, especially in relatively devitalized bone associated with vasculopathy. Incubation in mucolytic allows for breakdown of the biofilm and the glycerol broth allows for a nutritive environment to coax these recalcitrant organisms into a cultivable state.

The subject of experiment [7] is S. aureus. The experiment can be described thus: Antibiotic sensitivity (MIC) of S. aureus grown from bone incubated in the transport system, Example 3. The experiment is classed as cell-based, Staphylococcus aureus. The settings on record: for MIC: unit assumed. Here is the method:
FIG. 5L illustrates another view of the cultures. […] The sample was incubated for 24 hours at 37 degrees Celsius. […] While not being bound to a specific theory, the native bone may sequester sessile infection in biofilms, especially in relatively devitalized bone associated with vasculopathy. Incubation in mucolytic allows for breakdown of the biofilm and the glycerol broth allows for a nutritive environment to coax these recalcitrant organisms into a cultivable state.

Setting [8] is: 05 S. aureus, bone incubated 24 hours at 37 degrees Celsius.

≈ marks a conversion by molar mass, not a printed value.

Regarding `NCC[C@H](O)C(=O)N[C@@H]1C[C@H](N)[C@@H](O[C@H]2O[C@H](CN)[C@@H](O)[C@H](O)[C@H]2O)[C@H](O)[C@H]1O[C@H]1O[C@H](CO)[C@@H](O)[C@H](N)[C@H]1O` [Amikacin], in experiment [1], the Interps entry is “S” and the MIC is at most 16 µg/mL.
As to `CO/N=C(\C(=O)N[C@@H]1C(=O)N2C(C(=O)O)=C(CSc3nc(=O)c(=O)[nH]n3C)CS[C@H]12)c1csc(N)n1` [Ceftriaxone], in experiment [2], the “sensitivity of the isolate according to the sensitivity pattern” value was “sensitive”, the Interpretation result is “S” and the MIC was at most 0.25 µg/mL. In experiment [1], the “sensitivity of the organism” value is “sensitive”, the Interps result is reported as “S” and the MIC was at most 1 µg/mL.
`CO[C@@]1(NC(=O)Cc2cccs2)C(=O)N2C(C(=O)O)=C(COC(N)=O)CS[C@@H]21` [Cefoxitin]: in experiment [1], the Interps entry is listed as “S” and the MIC is at most 8 µg/mL.
Regarding `CN[C@H](CC(C)C)C(=O)N[C@H]1C(=O)N[C@@H](CC(N)=O)C(=O)N[C@H]2C(=O)N[C@H]3C(=O)N[C@H](C(=O)N[C@H](C(=O)O)c4cc(O)cc(O)c4-c4cc3ccc4O)[C@H](O)c3ccc(c(Cl)c3)Oc3cc2cc(c3O[C@@H]2O[C@H](CO)[C@@H](O)[C@H](O)[C@H]2O[C@H]2C[C@](C)(N)[C@H](O)[C@H](C)O2)Oc2ccc(cc2Cl)[C@H]1O` [Vancomycin], the Interps result in experiment [3], in experiment [5], in experiment [6] and in experiment [7] (setting [8]) was “S” each time. Moreover, the MIC in experiment [3] came to 2 µg/mL (≈ 1.38 µM); in experiment [5] it was 2 µg/mL (≈ 1.38 µM); in experiment [6], 1 µg/mL (≈ 0.69 µM); in experiment [7] (setting [8]), 1 µg/mL (≈ 0.69 µM); in experiment [2], 0.25 µg/mL (≈ 0.173 µM). In addition, in experiment [4], the “clinical outcome of therapy” value was “allowed the patient to come off the ventilator”. Further, the Interpretation result in experiment [2] is given as “S”.
Consider `CCCCCCCCCC(=O)N[C@@H](Cc1c[nH]c2ccccc12)C(=O)N[C@H](CC(N)=O)C(=O)N[C@@H](CC(=O)O)C(=O)N[C@@H]1C(=O)NCC(=O)N[C@@H](CCCN)C(=O)N[C@@H](CC(=O)O)C(=O)N[C@H](C)C(=O)N[C@@H](CC(=O)O)C(=O)NCC(=O)N[C@H](CO)C(=O)N[C@@H]([C@H](C)CC(=O)O)C(=O)N[C@@H](CC(=O)c2ccccc2N)C(=O)O[C@@H]1C` [Daptomycin], for which, in experiment [6], the Interps result is reported as “S” and the MIC was determined as 0.5 µg/mL (≈ 0.309 µM). Further, in experiment [7] (setting [8]), the Interps entry is listed as “S” and inhibition of growth (MIC) required 0.5 µg/mL (≈ 0.309 µM).
On to `CC(=O)NC[C@H]1CN(c2ccc(N3CCOCC3)c(F)c2)C(=O)O1` [Linezolid], for which the Interps result in experiment [3], in experiment [5], in experiment [6] and in experiment [7] (24 h) was “S” each time. Moreover, the MIC in experiment [3], in experiment [5], in experiment [6] and in experiment [7] (setting [8]) was 2 µg/mL (≈ 5.93 µM) in each case. In experiment [4], the “clinical outcome of therapy” value was “allowed the patient to come off the ventilator”.
For `CC[C@H]1OC(=O)[C@H](C)[C@@H](O[C@H]2C[C@@](C)(OC)[C@@H](O)[C@H](C)O2)[C@H](C)[C@@H](O[C@@H]2O[C@H](C)C[C@H](N(C)C)[C@H]2O)[C@](C)(O)C[C@@H](C)CN(C)[C@H](C)[C@@H](O)[C@]1(C)O` [azithromycin], the “macrolide resistance of the isolate” value in experiment [2] (inferred from macrolide resistance) is on record as “resistant”.
Take `NC[C@H]1O[C@H](O[C@H]2[C@H](O)[C@@H](O[C@H]3O[C@H](CO)[C@@H](O)[C@H](N)[C@H]3O)[C@H](N)C[C@@H]2N)[C@H](N)C[C@@H]1O` [Tobramycin]: in experiment [1], the Interps entry is given as “S” and the MIC was at most 1 µg/mL.
Take `Cc1nnc(SCC2=C(C(=O)O)N3C(=O)[C@@H](NC(=O)Cn4cnnn4)[C@H]3SC2)s1` [Cefazolin]: the Interps result in experiment [3] is on record as “R”; in experiment [5], “R”; in experiment [6], “S”; in experiment [7] (setting [8]) it was “S”; in experiment [1] it was “R”. The MIC in experiment [3] was 16 µg/mL (≈ 35.2 µM); in experiment [5], 8 µg/mL (≈ 17.6 µM); in experiment [6], at most 4 µg/mL; in experiment [7] (setting [8]) it was at most 4 µg/mL; in experiment [1], 8 µg/mL (≈ 17.6 µM).
Consider `CO[C@H]1/C=C/O[C@@]2(C)Oc3c(C)c(O)c4c(O)c(c(/C=N/N5CCN(C)CC5)c(O)c4c3C2=O)NC(=O)/C(C)=C\C=C\[C@H](C)[C@H](O)[C@@H](C)[C@@H](O)[C@@H](C)[C@H](OC(C)=O)[C@@H]1C` [Rifampin], for which the Interps entry in experiment [3], in experiment [5] and in experiment [7] (24 h) was “S” in each case. The MIC in experiment [3], in experiment [5] and in experiment [7] (setting [8]) was at most 1 µg/mL throughout.
Take `CCC[C@@H]1C[C@@H](C(=O)N[C@@H]([C@H]2O[C@H](SC)[C@H](O)[C@@H](O)[C@H]2O)[C@H](C)Cl)N(C)C1` [Clindamycin]: the Interps entry in experiment [3] is “R”; in experiment [5], “R”; in experiment [6] it was “S”; in experiment [7] (setting [8]), “S”. In addition, the MIC is above 4 µg/mL in experiment [3]; above 4 µg/mL in experiment [5]; at most 0.25 µg/mL in experiment [6]; at most 0.25 µg/mL in experiment [7] (setting [8]); above 0.5 µg/mL in experiment [2]. For the same compound, in experiment [2], the Interpretation entry is listed as “R”.
On to Penicillin, for which, in experiment [2], the Interpretation entry was “S” and the MIC was at most 0.03 µg/mL.
Regarding `C[C@H]1COc2c(N3CCN(C)CC3)c(F)cc3c(=O)c(C(=O)O)cn1c23` [Levofloxacin], in experiment [2], the Interpretation result was “S” and 1 µg/mL (≈ 2.77 µM) was the least that counted as inhibitory (MIC). In experiment [1], the Interps result is on record as “S” and the MIC was at most 0.25 µg/mL.
On to Gentamicin, for which the Interps entry in experiment [3], in experiment [5], in experiment [6], in experiment [7] (setting [8]) and in experiment [1] was “S” throughout. The MIC in experiment [3], in experiment [5], in experiment [6], in experiment [7] (setting [8]) and in experiment [1] was at most 1 µg/mL in each case.
For the compound `C[C@@H](O)[C@H]1C(=O)N2C(C(=O)O)=C(S[C@@H]3CN[C@H](C(=O)N(C)C)C3)[C@H](C)[C@H]12` [Meropenem], in experiment [1], the Interps result is “S” and the MIC was at most 1 µg/mL.
In the case of `Cc1onc(-c2ccccc2)c1C(=O)N[C@@H]1C(=O)N2[C@@H]1SC(C)(C)[C@@H]2C(=O)O` [Oxacillin], the Interps entry is reported as “R” in experiment [3], “R” in experiment [5], “S” in experiment [6] and “S” in experiment [7] (24 h). In addition, the MIC was above 2 µg/mL in experiment [3], above 2 µg/mL in experiment [5], at most 0.25 µg/mL in experiment [6] and at most 0.25 µg/mL in experiment [7] (setting [8]).
Turning to `C[C@@H](O)[C@H]1C(=O)N2C(C(=O)O)=C(SCCN=CN)C[C@H]12` [Imipenem], in experiment [1], the Interps result is recorded as “S” and the MIC is at most 0.5 µg/mL.
For the compound `CN(C)[C@@H]1C(O)=C(C(N)=O)C(=O)[C@@]2(O)C(O)=C3C(=O)c4c(O)cccc4[C@@](C)(O)[C@H]3C[C@@H]12` [Tetracycline], the Interps result is “S” in experiment [3]; “S” in experiment [5]; “R” in experiment [6]; “R” in experiment [7] (setting [8]); “S” in experiment [1]. Besides, the MIC in experiment [3] is at most 1 µg/mL; in experiment [5] it was at most 1 µg/mL; in experiment [1], at most 4 µg/mL.
Turning to `CO/N=C(\C(=O)N[C@@H]1C(=O)N2C(C(=O)[O-])=C(C[N+]3(C)CCCC3)CS[C@H]12)c1csc(N)n1` [Cefepime], in experiment [1], the Interps result was “S” and the MIC was at most 2 µg/mL.
Taken in the same sequence, the figures for `O=C(O)c1cn(C2CC2)c2cc(N3CCNCC3)c(F)cc2c1=O` [Ciprofloxacin] were “S” and at most 1 µg/mL.
Taken in the same sequence, the figures for `CC1(C)S[C@@H]2[C@H](NC(=O)[C@H](N)c3ccccc3)C(=O)N2[C@H]1C(=O)O` [Ampicillin] were “R” and above 16 µg/mL.
The matching figures for `CO/N=C(\C(=O)N[C@@H]1C(=O)N2C(C(=O)O)=C(COC(C)=O)CS[C@H]12)c1csc(N)n1` [Cefotaxime]: “S” and at most 2 µg/mL.
For `CC[C@H]1OC(=O)[C@H](C)[C@@H](O[C@H]2C[C@@](C)(OC)[C@@H](O)[C@H](C)O2)[C@H](C)[C@@H](O[C@@H]2O[C@H](C)C[C@H](N(C)C)[C@H]2O)[C@](C)(O)C[C@@H](C)C(=O)[C@H](C)[C@@H](O)[C@]1(C)O` [Erythromycin], in experiment [2], the Interpretation entry was “R” and the MIC was above 0.5 µg/mL.
